In PMC9569450, “Dual Effect of Tryptamine on Prostate Cancer Cell Growth Regulation: A Pilot Study” (International Journal of Molecular Sciences, 2022):

Experiments:
PC-3 cells [1] = assay: Transwell migration assay, PC-3; type: cell-based, human; conditions: 24 h
Description: Cell migration was evaluated using 8-μm transwell filters (Costar Corning, Schiphol-Rijk, The Netherlands). Cells at a density of 5 × 10^4 were seeded to the upper chamber, and the chamber was filled with FBS-free medium. Cells were incubated overnight to allow for adherence; then, the lower chamber was replaced with 10% FBS medium as a chemo-attractant. Following a 24 h incubation, non-migrating cells on the upper surface of the insert membrane were gently removed by cotton swabs and migrated cells on the lower surface of the insert membrane were fixed by 4% paraformaldehyde and stained with 0.1% crystal violet for 20 min. Migrated cells on each membrane were photographed and counted at 100× magnification field at six random fields.

[2] = test system: human colon cancer cell line HT29; conditions: HT29 as in vitro model of intestinal epithelium; cited from earlier work
PC-3 cells [3] = assay: Annexin V-FITC/PI flow cytometry apoptosis assay; type: cell-based, human; conditions: 24 h
Description: Cell apoptosis was assessed by Annexin V-FITC and propidium iodide (PI) staining using an Annexin V-FITC apoptosis detection kit (Thermo Fisher Scientific, Carlsbad, CA, USA) according to the manufacturer’s instructions. Briefly, cells were seeded at a density of 1.0 × 10^5 cells/well and pre-incubated for 24 h to allow for adherence before treatment with various concentrations of tryptamine in an FBS-free medium. After 24 h of tryptamine incubation, cells in each well were harvested and centrifuged at 200× g for 5 min. Cells were washed with PBS and centrifuged at 200× g for 5 min. Cells were resuspended in 100 μL binding buffer, followed by staining with 5 μL Annexin V-FITC and 5 μL PI, and incubation on ice in the dark for 15 min after addition of each staining reagent. Subsequently, a 300 μL binding buffer was added to the sample and apoptotic cells were detected by a flow cytometer (NovoCyte; ACEA Biosciences Inc., San Diego, CA, USA).

A549 cells = assay: MTT cell proliferation assay, A549; type: cell-based; conditions: Homo sapiens, A549, 48 h treatment in FBS-free medium, read-out: IC50 Value (Mean ± SD mM) A549
Description: (§1) PC-3, LNCaP, RWPE-1, HepG2, A549, and PANC-1 cells were purchased from the National Collection of Authenticated Cell Cultures (Shanghai, China). […] All the above cell cultures were supplied with 10% fetal bovine serum and 1% penicillin-streptomycin. RWPE-1 cells were cultured in keratinocyte serum-free medium (K-SFM, Gibco, New York, NY, USA) supplemented with 50 mg/L bovine pituitary extract and 5 μg/L epidermal growth factor (EGF). All cell lines were grown in a humidified atmosphere of 5% CO2 at 37 °C.
(§2) Cells were seeded in 100 μL complete medium in a 96-well plate, at a density of 10,000 cells/well for LNCaP and 5000 cells/well for other cells. Cells were pre-incubated for 24 h to allow for adherence before removal of complete medium and treatment with various concentrations of compounds in fetal bovine serum (FBS)-free medium for 48 h. After treatment, 20 μL/well MTT (5 mg/mL) was added and incubated for 3–4 h at 37 °C, and then 100 μL/well DMSO was added for MTT assay. The plate was shaken on an orbital shaker for 10 min. Absorbance was measured using a microplate reader at 492 nm for the MTT assay (performed in triplicates). Cell viability was normalized to control. Half inhibitory concentration (IC50) was calculated by SPSS Statistics 17.0. […] The experiments were independently repeated two to three times.

[4] = mice; cited from earlier work
PC-3 cells [5] = assay: MTT cell proliferation assay, PC-3; type: cell-based, human; conditions: Homo sapiens, PC-3, 48 h treatment in FBS-free medium, read-out: IC50 Value (Mean ± SD mM) PC-3
Description: as §1, §2

[6] = test system: cleaved caspase-3 in PC-3 cells; assay: Cleaved caspase-3 expression by immunofluorescent staining and Western blot; type: cell-based, human; conditions: PC-3, 0.3 mM
Description: After treatment with various doses of tryptamine, PC-3 cells were lysed with RIPA lysis buffer (Beyotime, Shanghai, China) containing 1 mM PMSF, and the total protein concentration was determined by BCA Protein Assay Kit (Solarbio, Beijing, China). Samples were electrophoresed on a 10% sodium dodecylsulfate (SDS) polyacrylamide gel and electrotransferred onto polyvinylidene difluoride (PVDF) membrane (Beyotime, China). After blocking with 5% BSA for 1 h, the membrane was incubated with the primary antibodies rabbit anti-cleaved caspase-3 (1:1000, ab32042, Abcam) and anti-β-actin (1:1000, 4967S, Cell Signaling Technology, Boston, MA, USA) at 4 °C overnight, followed by incubation with horseradish peroxidase (HRP)-conjugated goat anti-rabbit secondary antibody (1:2000, 7074S, Cell Signaling Technology) for 1 h at 37 °C. After washing with TBST, the bands were visualized by the enhanced chemiluminescence kit (Thermo Fisher Scientific, Carlsbad, CA, USA) and Odyssey® imaging system (LI-COR, Lincoln, NE, USA) according to the manufacturers’ instructions.
PC-3 cells (5 × 10^4 cells/well) were seeded in a 24-well chamber with a coverslip and incubated overnight. […] Fluorescence images were acquired with a laser scanning confocal microscope (LSCM, Leica, TCS SP8 MP, Heidelberg, Germany).

HepG2 cells = assay: MTT cell proliferation assay, HepG2; type: cell-based; conditions: Homo sapiens, HepG2, 48 h treatment in FBS-free medium, read-out: IC50 Value (Mean ± SD mM) HepG2
Description: as §1, §2

PANC-1 cells = assay: MTT cell proliferation assay, PANC-1; type: cell-based; conditions: Homo sapiens, PANC-1, 48 h treatment in FBS-free medium, read-out: IC50 Value (Mean ± SD mM) PANC-1
Description: as §1, §2

RWPE-1 cells = assay: MTT cell proliferation assay, RWPE-1; type: cell-based; conditions: Homo sapiens, RWPE-1; MTT, 48 h treatment in FBS-free medium; read-out: IC50 Value (Mean ± SD mM) RWPE-1
Description: as §1, §2

LNCaP cells = assay: MTT cell proliferation assay, LNCaP; type: cell-based; conditions: Homo sapiens, LNCaP, 48 h treatment in FBS-free medium, read-out: IC50 Value (Mean ± SD mM) LNCaP
Description: as §1, §2

[7] = test system: A549, HepG2, and PANC-1 cells; assay: MTT cell proliferation assay, other three cancer cell lines; type: cell-based; conditions: A549, HepG2, and PANC-1, text summary
Description: as §1, §2

**Q.** For `NCCc1c[nH]c2ccccc12` [Tryptamine], which “migrated cells reduced by” value (PC-3 cells [1]; PC-3, 0.075 mM) is on record?
**A.** The value was 22%.

**Q.** What about the “percentage of migrated cells” value (PC-3 cells [1]; PC-3, 0.15 mM) of the same compound?
**A.** Its value is 58%.

**Q.** And the “percentage of migrated cells” value (PC-3 cells [1]; PC-3, 0.3 mM)?
**A.** The value was 23%.

**Q.** And the IC50 [2]?
**A.** The IC50 was 670 ± 90 µM.

**Q.** And the “apoptotic cell populations (early and late apoptosis)” value (PC-3 cells [3]; PC-3, 0.2 mM)?
**A.** The value was 12.1%.

**Q.** What about the “apoptotic cell populations (early and late apoptosis)” value (PC-3 cells [3]; PC-3, 0.3 mM) of the same compound?
**A.** The value was 21.4%.

**Q.** What about the IC50 (A549 cells) of the same compound?
**A.** Its IC50 is 0.46 ± 0.01 mM.

**Q.** What about the “median lethal dose (LD50)” value [4] of the same compound?
**A.** Its value is ~ 200 mg/kg.

**Q.** What about the IC50 (PC-3 cells [5]) of the same compound?
**A.** The IC50 was 0.24 ± 0.01 mM.

**Q.** And the “expression of cleaved caspase-3” value [6]?
**A.** Its value is “increased expression of cleaved caspase-3”.

**Q.** What about the IC50 (HepG2 cells) of the same compound?
**A.** Its IC50 is 0.35 ± 0.02 mM.

**Q.** What about the IC50 (PANC-1 cells) of the same compound?
**A.** The IC50 was 0.38 ± 0.01 mM.

**Q.** What about the IC50 (RWPE-1 cells) of the same compound?
**A.** The IC50 was 0.71 ± 0.06 mM.

**Q.** What about the IC50 (LNCaP cells) of the same compound?
**A.** Its IC50 is 0.037 ± 0.001 mM.

**Q.** And the IC50 [7]?
**A.** Its IC50 is 350 to 460 µM.
